In PubChem BioAssay (NCI):
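Assay format: 96-well plates, 48-hour exposure. The concentration for 50% growth inhibition is given as GI50. At the TGI there is no net growth.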

Key:
Assay in all cases: inhibition of tumour cell growth, NCI panel, 48 h
A498 renal = system: A498 renal
OVCAR-5 ovarian = system: OVCAR-5 ovarian
OVCAR-8 ovarian = system: OVCAR-8 ovarian
SF-268 CNS = system: SF-268 CNS
A549 NSCLC = system: A549 NSCLC
NCI-H460 lung = system: NCI-H460 lung
SK-MEL-2 melanoma = system: SK-MEL-2 melanoma
SF-295 CNS = system: SF-295 CNS
ACHN renal = system: ACHN renal
MCF7 breast = system: MCF7 breast

CCOC(=O)C(C(O)c1ccc([N+](=O)[O-])cc1)P(=O)(OCC)OCC (stereo not given)
TGI (A498 renal): > 100 µM
TGI (OVCAR-5 ovarian): > 100 µM
TGI (OVCAR-8 ovarian): > 100 µM
TGI (SF-268 CNS): > 100 µM
TGI (A549 NSCLC): > 100 µM
TGI (NCI-H460 lung): > 100 µM
TGI (SK-MEL-2 melanoma): > 100 µM
TGI (SF-295 CNS): > 100 µM
TGI (ACHN renal): > 100 µM

O=c1cc(-c2ccccc2)[nH]c2cc(Cl)ccc12
TGI (A498 renal): > 100 µM
TGI (OVCAR-5 ovarian): > 100 µM
TGI (OVCAR-8 ovarian): 33.1 µM
TGI (SF-268 CNS): > 100 µM
TGI (A549 NSCLC): > 100 µM
TGI (NCI-H460 lung): 14.8 µM
TGI (SK-MEL-2 melanoma): > 100 µM
TGI (SF-295 CNS): 2.07 µM
TGI (ACHN renal): 31 µM

c1ccc(N/N=C2\NN=C(c3ccccc3)CS2)cc1
TGI (A498 renal): 25.8 µM
TGI (OVCAR-5 ovarian): 41.8 µM
TGI (OVCAR-8 ovarian): 19.7 µM
TGI (SF-268 CNS): 19.8 µM
TGI (A549 NSCLC): 22.2 µM
TGI (NCI-H460 lung): 51.4 µM
TGI (SK-MEL-2 melanoma): 44 µM
TGI (SF-295 CNS): 48.6 µM
TGI (ACHN renal): 19.1 µM

CN1CCN(Cc2cc(NC(=O)c3cccc(C#Cc4cccc5[nH]nc(N)c45)c3)cc(C(F)(F)F)c2)CC1
GI50 (A498 renal): 1010 nM
TGI (A498 renal): 2.22 µM
GI50 (OVCAR-5 ovarian): 1.5 µM
TGI (OVCAR-5 ovarian): 2.98 µM
GI50 (OVCAR-8 ovarian): 1.85 µM
TGI (OVCAR-8 ovarian): 3.62 µM
GI50 (SF-268 CNS): 1.53 µM
TGI (SF-268 CNS): 3.15 µM
GI50 (MCF7 breast): 1650 nM
TGI (MCF7 breast): 3.26 µM
GI50 (A549 NSCLC): 1.83 µM
TGI (A549 NSCLC): 3.28 µM
GI50 (NCI-H460 lung): 1.67 µM
TGI (NCI-H460 lung): 3.06 µM
GI50 (SK-MEL-2 melanoma): 1.72 µM
TGI (SK-MEL-2 melanoma): 3.4 µM
GI50 (ACHN renal): 1660 nM
TGI (ACHN renal): 3.02 µM

COc1cnc2c(c1)C(=O)c1c-2n(CCCN2CCNCC2)c(=O)c2cc([N+](=O)[O-])ccc12
GI50 (A498 renal): 86.3 nM
TGI (A498 renal): 2.19 µM
GI50 (OVCAR-5 ovarian): 1.02 µM
TGI (OVCAR-5 ovarian): 2.58 µM
GI50 (OVCAR-8 ovarian): 0.314 µM
TGI (OVCAR-8 ovarian): 2.29 µM
GI50 (A549 NSCLC): 0.0699 µM
TGI (A549 NSCLC): 1.5 µM
GI50 (SK-MEL-2 melanoma): 2.07 µM
TGI (SK-MEL-2 melanoma): 3.95 µM
GI50 (SF-295 CNS): 0.126 µM
TGI (SF-295 CNS): 1.07 µM
GI50 (ACHN renal): 117 nM
TGI (ACHN renal): 1.22 µM

CCc1cccc(C)c1NC(=S)NC(=O)c1ccccc1C(=O)NC(=S)Nc1c(C)cccc1CC
TGI (A498 renal): > 100 µM
TGI (OVCAR-5 ovarian): > 100 µM
TGI (OVCAR-8 ovarian): > 100 µM
TGI (SF-268 CNS): > 100 µM
TGI (A549 NSCLC): > 100 µM
TGI (NCI-H460 lung): > 100 µM
TGI (SK-MEL-2 melanoma): > 100 µM
TGI (SF-295 CNS): > 100 µM
TGI (ACHN renal): > 100 µM

CCN=C(C#N)NCC
TGI (A498 renal): > 100 µM
TGI (OVCAR-5 ovarian): > 100 µM
TGI (OVCAR-8 ovarian): > 100 µM
TGI (SF-268 CNS): > 100 µM
TGI (A549 NSCLC): > 100 µM
TGI (NCI-H460 lung): > 100 µM
TGI (SK-MEL-2 melanoma): > 100 µM
TGI (SF-295 CNS): > 100 µM
TGI (ACHN renal): > 100 µM

Fc1ccc(Nc2nc3ccccc3c3occc23)cc1
GI50 (OVCAR-5 ovarian): 10.1 µM
TGI (OVCAR-5 ovarian): 21.8 µM
GI50 (OVCAR-8 ovarian): 11.2 µM
TGI (OVCAR-8 ovarian): 31.5 µM
GI50 (SF-268 CNS): 7.54 µM
TGI (SF-268 CNS): 24.1 µM
GI50 (MCF7 breast): 3390 nM
TGI (MCF7 breast): 18.5 µM
GI50 (A549 NSCLC): 8.99 µM
TGI (A549 NSCLC): 23.2 µM
GI50 (NCI-H460 lung): 4.61 µM
TGI (NCI-H460 lung): 19 µM
GI50 (SK-MEL-2 melanoma): 11.9 µM
TGI (SK-MEL-2 melanoma): 27.6 µM
GI50 (SF-295 CNS): 3.39 µM
TGI (SF-295 CNS): 13.1 µM
GI50 (ACHN renal): 1400 nM
TGI (ACHN renal): 15.8 µM

CSc1ccc(C(=O)/C=C/c2ccccc2Cl)cc1
GI50 (OVCAR-5 ovarian): 16.1 µM
TGI (OVCAR-5 ovarian): 31.6 µM
GI50 (OVCAR-8 ovarian): 15.8 µM
TGI (OVCAR-8 ovarian): 32.5 µM
GI50 (SF-268 CNS): 22.4 µM
TGI (SF-268 CNS): 53.3 µM
GI50 (MCF7 breast): 32200 nM
TGI (MCF7 breast): > 100 µM
GI50 (A549 NSCLC): 15.1 µM
TGI (A549 NSCLC): 30.5 µM
GI50 (NCI-H460 lung): 25.2 µM
TGI (NCI-H460 lung): 70 µM
GI50 (SK-MEL-2 melanoma): 16.2 µM
TGI (SK-MEL-2 melanoma): 37.7 µM
GI50 (SF-295 CNS): 16.1 µM
TGI (SF-295 CNS): 33.1 µM
GI50 (ACHN renal): 15000 nM
TGI (ACHN renal): 28.5 µM

COc1ccc(CCc2cc(OC)c(O)c(OC)c2)cc1
TGI (OVCAR-5 ovarian): > 100 µM
TGI (OVCAR-8 ovarian): > 100 µM
TGI (SF-268 CNS): > 100 µM
TGI (A549 NSCLC): > 100 µM
TGI (NCI-H460 lung): > 100 µM
TGI (SK-MEL-2 melanoma): > 100 µM
TGI (ACHN renal): > 100 µM

COc1ccc(/C=C2\c3cc(OC)c(OC)c(OC)c3CC[C@@H]2O)cc1F
GI50 (A498 renal): 152 nM
TGI (A498 renal): 0.697 µM
GI50 (OVCAR-5 ovarian): 10.4 µM
TGI (OVCAR-5 ovarian): > 100 µM
GI50 (OVCAR-8 ovarian): 0.598 µM
TGI (OVCAR-8 ovarian): 93.4 µM
GI50 (SF-268 CNS): 0.748 µM
TGI (SF-268 CNS): > 100 µM
GI50 (MCF7 breast): 88 nM
TGI (MCF7 breast): > 100 µM
GI50 (A549 NSCLC): 0.693 µM
TGI (A549 NSCLC): > 100 µM
GI50 (NCI-H460 lung): 0.299 µM
TGI (NCI-H460 lung): 16.9 µM
GI50 (SF-295 CNS): 0.222 µM
TGI (SF-295 CNS): > 100 µM
GI50 (ACHN renal): 815 nM
TGI (ACHN renal): > 100 µM

Cc1cc(Cl)ccc1NC(=O)C(=O)C(C(=O)c1ccccc1)C1OC(=O)c2ccccc21 (stereo not given)
TGI (A498 renal): > 100 µM
TGI (OVCAR-5 ovarian): > 100 µM
TGI (OVCAR-8 ovarian): > 100 µM
TGI (SF-268 CNS): > 100 µM
TGI (A549 NSCLC): > 100 µM
TGI (NCI-H460 lung): > 100 µM
TGI (SK-MEL-2 melanoma): > 100 µM
TGI (SF-295 CNS): > 100 µM
TGI (ACHN renal): > 100 µM

c1ccc2c(NCCCCCCNc3cccc4ccccc34)cccc2c1
TGI (A498 renal): > 100 µM
TGI (OVCAR-5 ovarian): > 100 µM
TGI (OVCAR-8 ovarian): > 100 µM
TGI (SF-268 CNS): > 100 µM
TGI (A549 NSCLC): > 100 µM
TGI (NCI-H460 lung): > 100 µM
TGI (SK-MEL-2 melanoma): > 100 µM
TGI (SF-295 CNS): > 100 µM
TGI (ACHN renal): > 100 µM

COCCn1cc(-c2csc(-c3c[nH]c4ccc(Br)cc34)n2)c2cccnc21
GI50 (A498 renal): 3020 nM
TGI (A498 renal): 15.9 µM
GI50 (OVCAR-5 ovarian): 4.83 µM
TGI (OVCAR-5 ovarian): > 100 µM
GI50 (OVCAR-8 ovarian): 5.35 µM
TGI (OVCAR-8 ovarian): > 100 µM
GI50 (MCF7 breast): 1790 nM
TGI (MCF7 breast): > 100 µM
GI50 (A549 NSCLC): 6.89 µM
TGI (A549 NSCLC): > 100 µM
GI50 (NCI-H460 lung): 3.07 µM
TGI (NCI-H460 lung): > 100 µM
GI50 (SK-MEL-2 melanoma): 6.82 µM
TGI (SK-MEL-2 melanoma): 67.6 µM
GI50 (SF-295 CNS): 2.83 µM
TGI (SF-295 CNS): > 100 µM
GI50 (ACHN renal): 3040 nM
TGI (ACHN renal): > 100 µM

CC(=O)O[C@H]1CC2C=CC3C(CCC31)O2 (stereo not given in full)
TGI (OVCAR-8 ovarian): > 100 µM
TGI (SF-268 CNS): > 100 µM
TGI (A549 NSCLC): > 100 µM
TGI (NCI-H460 lung): > 100 µM
TGI (ACHN renal): > 100 µM

CCOC(=O)c1cccnc1C(OC(C)=O)OC(C)=O
TGI (A498 renal): > 100 µM
TGI (OVCAR-5 ovarian): > 100 µM
TGI (OVCAR-8 ovarian): > 100 µM
TGI (SF-268 CNS): > 100 µM
TGI (A549 NSCLC): > 100 µM
TGI (NCI-H460 lung): > 100 µM
TGI (SK-MEL-2 melanoma): > 100 µM
TGI (SF-295 CNS): > 100 µM
TGI (ACHN renal): > 100 µM

CCOC1CC2OC(=O)C1C=C2C(=O)OC (stereo not given)
TGI (A498 renal): > 100 µM
TGI (OVCAR-5 ovarian): > 100 µM
TGI (SF-268 CNS): > 100 µM
TGI (A549 NSCLC): > 100 µM
TGI (NCI-H460 lung): > 100 µM
TGI (SK-MEL-2 melanoma): 65.7 µM
TGI (SF-295 CNS): > 100 µM
TGI (ACHN renal): > 100 µM

[O-]c1c2c(nn1-c1ccc(Cl)cc1)c1ccccc1c[n+]2Cc1ccccc1
TGI (OVCAR-5 ovarian): > 100 µM
TGI (OVCAR-8 ovarian): > 100 µM
TGI (SF-268 CNS): > 100 µM
TGI (A549 NSCLC): > 100 µM
TGI (NCI-H460 lung): > 100 µM
TGI (SK-MEL-2 melanoma): > 100 µM
TGI (SF-295 CNS): > 100 µM
TGI (ACHN renal): > 100 µM

CCCCCCCC(=O)[O][Hg][CH2]C1COC([CH2][Hg][O]C(=O)CCCCCCC)CO1 (stereo not given)
GI50 (OVCAR-5 ovarian): 20.1 µM
TGI (OVCAR-5 ovarian): 34.3 µM
GI50 (OVCAR-8 ovarian): 19.8 µM
TGI (OVCAR-8 ovarian): 40.1 µM
GI50 (SF-268 CNS): 18.2 µM
TGI (SF-268 CNS): 36.9 µM
GI50 (MCF7 breast): 4320 nM
TGI (MCF7 breast): 18.3 µM
GI50 (A549 NSCLC): 20.3 µM
TGI (A549 NSCLC): 47.2 µM
GI50 (NCI-H460 lung): 18.2 µM
TGI (NCI-H460 lung): 37.4 µM
GI50 (SF-295 CNS): 19 µM
TGI (SF-295 CNS): 36.5 µM
GI50 (ACHN renal): 13900 nM
TGI (ACHN renal): 26.9 µM
